Values quoted from earlier work in US8323615B2, “Methods of processing multi-phasic dispersions” (Baxter International Inc., priority 2008, dated 2012).
Counter-ions that a name gives are not always drawn. Like-named read-outs stand apart in the source and are kept apart here.

How the values were obtained:
rats = settings: for LD50, cells marked "I": value followed by undefined mark "I"
[1] = ambient temperature such as 20-25° C.
[2] = rats, oral, all at once (acute toxicity), minimal amount reported in the literature

## CC(Cl)(Cl)Cl [1,1,1-trichloroethane]
rats; [2]
  LD50: 9.6 g/kg body weight
rats; rats, oral, all at once (acute toxicity), minimal amount reported in the literature, listed as 1,1,1-TCA
  LD50: 16 g/kg body weight
[1]; unit not given
  Sol. (solubility of water in the liquid): 0.15 g/100 g
[1]; parts per million by weight
  Sol. (solubility of water in the liquid): 170 ppm

## ClC=C(Cl)Cl [1,1,2-trichloroethylene]
rats; [2]
  LD50: 2.4 g/kg body weight
[1]; unit not given
  Sol. (solubility of water in the liquid): 0.11 g/100 g

## FC(F)(Cl)C(F)(F)Cl [1,2-dichlorotetrafluoroethane]
rats; [2]
  LD50: 2.25 g/kg body weight
[1]; unit not given
  Sol. (solubility of water in the liquid): 0.13 g/100 g

## OCC(F)(F)F [2,2,2-trifluoroethanol]
rats; [2]
  LD50: 0.24 g/kg body weight

## C[S+](C)[O-] [DMSO, dimethylsulfoxide]
rats; [2]
  LD50: 18 g/kg body weight

## FC(F)(F)C(F)(F)C(F)(F)C(F)(F)N(C(F)(F)C(F)(F)C(F)(F)C(F)(F)F)C(F)(F)C(F)(F)C(F)(F)C(F)(F)F [Fluorinert ® FC-43, perfluorotributylamine]
rats; [2]
  LD50: 10 g/kg body weight
[1]; parts per million by weight
  Sol. (solubility of water in the liquid): 7 ppm

## FC(F)(F)C(F)(F)C(F)(F)C(F)(F)C(F)(F)N(C(F)(F)C(F)(F)C(F)(F)C(F)(F)C(F)(F)F)C(F)(F)C(F)(F)C(F)(F)C(F)(F)C(F)(F)F [Fluorinert ® FC-70, perfluorotriamylamine]
rats; [2]
  LD50: NTO
[1]; parts per million by weight
  Sol. (solubility of water in the liquid): 8 ppm

## NC=O [Formamide]
rats; [2]
  LD50: 5.5 g/kg body weight

## O=Cc1ccco1 [Furfural]
rats; rat, in vivo, po
  LD50: 0.05 g/kg body weight

## CC(F)(Cl)Cl [Genesolv ® 2000 HFC-141b]
rats; [2]
  LD50: >5 g/kg body weight

## FC(F)CC(F)(F)F [Genesolv ® S-F, 1,1,1,3,3-pentafluoropropane]
rats
  LD50, cells marked "I": >200 I g/kg body weight
[1]; parts per million by weight
  Sol. (solubility of water in the liquid): 1600 ppm

## FCC(F)(F)F [Genetron ® HFC-134a]
rats
  LD50, cells marked "I": 62 I g/kg body weight
[1]; in %
  Sol. (solubility of water in the liquid): 0.11%

## OCC(O)CO [Glycerol]
rats; rat, in vivo, po
  LD50: 13 g/kg body weight

## FC(C(F)C(F)(F)C(F)(F)F)C(F)(F)F (stereo not drawn) [HFC-4310mee]
rats
  LD50, cells marked "I": 11 I g/kg body weight
[1]; parts per million by weight
  Sol. (solubility of water in the liquid): 400 ppm

## CN1CCCC1=O [N-methylpyrrolidone]
rats; [2]
  LD50: 4.15 g/kg body weight
[1]; in %
  Sol. (solubility of water in the liquid): 100%

## O=C(C(F)(F)C(F)(F)F)C(F)(C(F)(F)F)C(F)(F)F [Novec ™ 1230, dodecafluoro-2-methylpentan-3-one]
rats
  LD50, cells marked "I": >100 I g/kg body weight

## COC(F)(F)C(F)(F)C(F)(F)F [Novec ™ HFE-7000, 1-methoxyheptafluoropropane]
rats; [2]
  LD50: >2 g/kg body weight
[1]; parts per million by weight
  Sol. (solubility of water in the liquid): 60 ppm

## CCOC(F)(F)C(F)(F)C(F)(F)C(F)(F)F [Novec ™ HFE-7200, ethoxynonafluorobutane]
rats; [2]
  LD50: >5 g/kg body weight
[1]; parts per million by weight
  Sol. (solubility of water in the liquid): 92 ppm

## CCOC(F)(C(F)(F)C(F)(F)C(F)(F)F)C(F)(C(F)(F)F)C(F)(F)F (stereo not drawn) [Novec ™ HFE-7500, 2-trifluoromethyl-3-ethoxydodecafluorohexane]
rats; [2]
  LD50: >2 g/kg body weight

## FC(F)(F)C(F)(F)C(F)(F)C(F)(F)C(F)(F)C(F)(F)F [PF-5060 & PF-5060DL]
rats; [2]
  LD50: >5 g/kg body weight

## FC(F)(F)C(F)(F)C(F)(F)C(F)(F)C(F)(F)C(F)(F)F [Perfluorohexane]
rats; [2]
  LD50: 5 g/kg body weight
[1]; unit not given
  Sol. (solubility of water in the liquid): 0.03 g/100 g
[1]; parts per million by weight
  Sol. (solubility of water in the liquid): 10 ppm

## O=S1(=O)CCCC1 [Sulfolane]
rats; [2]
  LD50: 1.94 g/kg body weight

## C1OCOCO1 [Trioxane]
rats; [2]
  LD50: 3.2 g/kg body weight
[1]
  Sol. (solubility of water in the liquid), in words: soluble

## S=C=S [carbon disulfide]
rats; rat, in vivo, po
  LD50: 3.2 g/kg body weight
[1]; in %
  Sol. (solubility of water in the liquid): <1%

## ClC(Cl)(Cl)Cl [carbon tetrachloride]
rats; [2]
  LD50: 2.3 g/kg body weight
[1]; unit not given
  Sol. (solubility of water in the liquid): 0.05 g/100 g

## CCOC(=O)C(=O)OCC [diethyl oxalate]
rats; rat, in vivo, po
  LD50: 0.4 g/kg body weight

## COCCOCCO [diethylene glycol methyl ether]
[1]; in %
  Sol. (solubility of water in the liquid): 100%

## OCCOCCO [diethylene glycol]
rats; [2]
  LD50: 13 g/kg body weight

## c1ccc(Oc2ccccc2)cc1 [diphenyl ether]
rats; [2]
  LD50: 3.37 g/kg body weight

## O=C1OCCO1 [ethylene carbonate]
rats; [2]
  LD50: 10 g/kg body weight

## OCCOCc1ccccc1 [ethylene glycol monobenzyl ether]
rats; [2]
  LD50: 1.19 g/kg body weight
[1]; unit not given
  Sol. (solubility of water in the liquid): 4 g/100 g

## OCc1ccco1 [furfuryl alcohol]
rats; rat, in vivo, po
  LD50: 0.275 g/kg body weight

## O=C1CCCO1 [gamma-butyrolactone]
rats; rat, in vivo, po
  LD50: 1.54 g/kg body weight

## COC(=O)C(C)O (stereo not drawn) [lactic acid, methyl ester]
rats; [2]
  LD50: 2 g/kg body weight
[1]
  Sol. (solubility of water in the liquid), in words: decomp

## CC(O)C(=O)O (stereo not drawn) [lactic acid]
rats; rat, in vivo, po
  LD50: 3.7, 3.5 g/kg body weight
rats; [2]
  LD50: 3.7, 3.5 g/kg body weight

## ClCCl [methylene chloride]
rats; [2]
  LD50: 1.6 g/kg body weight
[1]; unit not given
  Sol. (solubility of water in the liquid): 1.32 g/100 g

## Fc1cc(F)c(F)c(F)c1F [pentafluorobenzene]
rats; rat, in vivo, po
  LD50: 2 g/kg body weight

## OCC(F)(F)C(F)(F)F [pentafluoropropyl alcohol]
rats; [2]
  LD50: 1 g/kg body weight
[1]
  Sol. (solubility of water in the liquid), in words: soluble

## CC1COC(=O)O1 (stereo not drawn) [propylene carbonate]
rats; [2]
  LD50: 29 g/kg body weight
[1]; in %
  Sol. (solubility of water in the liquid): 23%

## CC(O)CO (stereo not drawn) [propylene glycol]
rats; [2]
  LD50: 22 g/kg body weight

## methoxynonafluorobutane [Novec ™ HFE-7100]
rats; [2]
  LD50: >5 g/kg body weight
[1]; parts per million by weight
  Sol. (solubility of water in the liquid): 95 ppm

## tetrahydrofurfuryl alcohol polyethyleneglycol ether [Glycofurol]
rats; [2]
  LD50: 7.8 g/kg body weight
[1]; in %
  Sol. (solubility of water in the liquid): >50%

## trimethylene glycol
rats; rat, in vivo, po
  LD50: 4.77 g/kg body weight
